Structures can show the parent of a compound that is named as a salt.
Tests used:
[1] = target: T1, C656G mutant glucocorticoid receptor (Rattus norvegicus, UniProt P06536, C656G/D98G); conditions: CV-1 cells, FIG. 1; C656G vs wild type
T1 sequence (P06536 1-795 D98G/C656G): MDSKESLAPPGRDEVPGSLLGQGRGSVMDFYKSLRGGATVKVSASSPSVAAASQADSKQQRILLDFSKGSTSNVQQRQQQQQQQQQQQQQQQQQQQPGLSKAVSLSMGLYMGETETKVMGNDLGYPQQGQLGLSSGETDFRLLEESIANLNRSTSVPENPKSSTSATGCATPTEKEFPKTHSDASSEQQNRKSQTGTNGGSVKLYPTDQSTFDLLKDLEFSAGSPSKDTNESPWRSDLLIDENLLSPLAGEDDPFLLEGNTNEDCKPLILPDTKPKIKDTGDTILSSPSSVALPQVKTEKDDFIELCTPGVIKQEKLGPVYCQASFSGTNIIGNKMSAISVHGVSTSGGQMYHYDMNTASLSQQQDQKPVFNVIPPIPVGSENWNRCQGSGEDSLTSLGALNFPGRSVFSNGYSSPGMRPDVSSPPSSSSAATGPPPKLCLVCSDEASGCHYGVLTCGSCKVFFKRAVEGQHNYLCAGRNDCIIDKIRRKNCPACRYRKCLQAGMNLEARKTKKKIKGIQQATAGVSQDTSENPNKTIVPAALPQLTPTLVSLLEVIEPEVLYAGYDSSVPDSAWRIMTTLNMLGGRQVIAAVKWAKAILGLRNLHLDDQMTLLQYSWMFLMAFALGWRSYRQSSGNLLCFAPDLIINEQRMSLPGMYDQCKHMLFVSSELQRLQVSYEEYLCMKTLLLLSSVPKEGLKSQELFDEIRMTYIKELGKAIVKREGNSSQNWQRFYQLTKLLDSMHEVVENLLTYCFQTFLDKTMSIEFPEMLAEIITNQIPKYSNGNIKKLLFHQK
Description: The biological activity of wild type (.quadrature.) or C656G mutant ( ) receptors was determined in CV-1 cells as described in the Example Section. The determined amounts of CAT activity from each plate were then plotted as a function of the concentration of dexamethasone added to each.
Subconfluent cultures of CV-1 cells were co-transfected, using the standard calcium phosphate procedure, with 0.2 μg VARO receptor expression vector (containing the mutant receptor driven by the SV40 enhancer and the α-globulin promoter) and 1 μg G46TCO reporter vector (CAT gene driven by the thymidine kinase promoter [to -109 bp] and a 46 bp synthetic GRE derived from the murine mammary tumor virus long terminal repeat) for each 60 mm dish. Cells were incubated overnight at 37° C. in a 5% CO2 incubator with the DNA precipitates, after which they were washed twice with PBS, and fresh medium (Dulbecco's modified Eagle's medium H-16 supplemented with 5% fetal calf serum) was added together with the indicated hormone.
After an additional 24 hr, at 37° C. in a 5% CO2 incubator, extracts were prepared by four freeze-thaw cycles (-75° C., 65° C.) and centrifuged for 5 min at 15,000 xg. Heat-treated extracts (5 min, 65° C.) were normalized for protein content and the amount of expressed CAT enzyme activity was determined by a non-chromatographic assay (M. J. Sleigh, Anal. Biochem. 156:251-256 (1986)).

[2] = target: T1, C656G mutant glucocorticoid receptor; experiment: Competition binding assay with [3H]Dex, COS-7 cytosol, C656G receptor; design: Thus the full length receptor was removed from the VARO vector with BamHI and inserted into the SVL vector; expressed in transfected cells; host or cells: COS-7 (cytosol)
Description: Monolayer cultures of COS-7 cells were grown in DMEM (Gibco) supplemented with 5% fetal bovine serum (FBS) (Biofluids) at 37° C. in a 5% CO2 incubator. Standard calcium phosphate transfection methods were used to introduce the wild type and mutant receptor expression vectors (pSVL) into COS-7 cells (100 mm plates [Costar] at a cell density of about 10^6 /plate were each treated with 10 μg of plasmid DNA). After ~16 hrs of incubation at 37° C. in a 5% CO2 incubator, the excess calcium phosphate and precipitate were removed by washing with phosphate buffered saline (PBS). The cells were incubated at 37° C. for another ~48 hr in DMEM/ 5% FBS and harvested by trypsinization followed by centrifugation (for 10 min at 1570 ×g) and washing 3 times with PBS. The washed cells were stored at -80° C. until used.
COS-7 cell cytosol containing the steroid-free receptors was prepared by cell lysis at -80° C. and centrifugation at 15,000 ×g and labeled as described for HTC cells (S. S. Simons and P. A. Miller, Biochem 23:6876-6882 (1984)). Briefly, 30% cytosol solutions containing ~21 mM Na2 MoO4 were prepared with three parts COS-7 cell cytosol, 2 parts pH 9.5 TAPS buffer, and 5 parts pH 8.8 TAPS buffer. The total EtOH in each experiment was kept constant and at a level of ≤1%. […] After incubation for 2.5 hr, the [^3 H]Dex-Mes-labeled solutions were quick-frozen at -78° C. for subsequent SDS-polyacrylamide gel electrophoresis analysis. The specifically bound [^3 H]Dex was determined by first adding a 10% dextran-coated charcoal solution (added volume =20% of reaction solution volume) to remove free steroid and then subtracting the nonspecific binding seen in the presence of excess nonradioactive Dex.
Duplicate aliquots (72 μl) of COS-7 cell cytosol (33.5% in pH 8.8 TAPS/27 mM Na2 MoO4 buffer) were treated with 4 μl each of [^3 H]Dex (in pH 8.8 TAPS buffer) and various concentrations of non-radioactive competing steroid (in 20% EtOH in pH 8.8 TAPS buffer) (final concentration of [^3 H]Dex ≈3 ×10^-8 M). The average specific binding was determined after 2.5 or 24 hr of incubation as described above, expressed as percentage of the non-competed control and plotted versus the log10 of the concentration of the competing steroid.
The specificity of steroid binding was determined by Rodbard correction (Rodbard, 1973) of the data from a competition binding assay (S. S. Simons et al., Biochem. Biophys. Res. Comm. 86:793-800 (1979); Miller and Simons, 1988). The initial data were collected from 2.5 hr binding assays because of concerns about the stability of the receptors over longer times.

[3] = tested on: glucocorticoid receptor; conditions: Simons et al., 1987; cited from earlier work
[4] = tested on: mouse glucocorticoid receptor; conditions: L. I. Smith et al., 1988; cited from earlier work
[5] = tested on: glucocorticoid receptors; conditions: cited from earlier work
[6] = tested on: any other steroid receptors; conditions: cited from earlier work

C[C@@H]1C[C@H]2[C@@H]3CCC4=CC(=O)C=C[C@]4(C)[C@@]3(F)[C@@H](O)C[C@]2(C)[C@@]1(O)C(=O)CO [Dex, dexamethasone]
lower concentrations for Dex induction of CAT activity with C656G than with wild type receptor [1]: ~ 10 fold
greater preference of C656G than wild type receptor for glucocorticoids vs aldosterone and progesterone [2]: 10-19 fold

C[C@@H]1C[C@H]2[C@@H]3CCC4=CC(=O)C=C[C@]4(C)[C@@]3(F)[C@@H](O)C[C@]2(C)[C@@]1(O)C(=O)COS(C)(=O)=O [Dex-Mes, dexamethasone mesylate]
covalent labeling of receptor thiol by Dex-Mes [3]: covalently label just one thiol in the receptor, i.e., cysteine 656
labeling of the identical cysteine in mouse receptor by Dex-Mes [4]: also labeled

O=[As][O-].[Na+] [arsenite]
effect of preincubation of unbound receptors on steroid binding [5]: eliminates all steroid binding
effect on steroid binding activity of glucocorticoid receptors [5]: blocks the steroid binding activity of glucocorticoid receptors
effect on steroid binding activity of other steroid receptors [6]: not of any other steroid receptors
